Laboratory results as given in patent EP1803452A1, “ESTER DERIVATIVE AND PHARMACEUTICAL USE THEREOF” (Japan Tobacco, Inc., priority 2004, dated 2006).

What was measured:
[1] = Metabolic stability test in liver S9; assay type: in vitro ADME; settings: pH 7.4, human liver S9 2 mg protein/mL, LC/MS; for remaining at 10 min: unchanged form after 10 minutes at 37°C, read-out: Remaining rate in human liver S9 (%/10min); for remaining at 1 h: unchanged form after 60 minutes at 37°C, read-out: Remaining rate in human liver S9 (%/60min)
Procedure, shortened: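 Compound from DMSO solution was incubated at 37°C with human liver S9 (final 2 mg protein/mL) in 100 mM potassium phosphate pH 7.4 with an NADPH-regenerating system for 0, 10 and 60 minutes. Reactions were stopped with acetonitrile/0.1% formic acid. Unchanged compound was measured by LC/MS as remaining rate (%) relative to zero time.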

[2] = Metabolic stability test in plasma; assay type: in vitro ADME, human; settings: LC/MS; for remaining at 10 min: unchanged form after 10 minutes at 37°C in human plasma, read-out: Remaining rate in human plasma (%/10min); for remaining at 1 h: unchanged form after 60 minutes at 37°C in human plasma, read-out: Remaining rate in human plasma (%/60min)
Procedure, shortened: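 Compound in DMSO spiked into human, mouse or hamster plasma, incubated at 37°C for 0, 10 and 60 minutes, then quenched with acetonitrile/formic acid (final 0.1%). Unchanged compound in supernatant quantified by LC/MS; remaining rate (%) relative to time zero.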

[3] = Stability test in buffer (pH 7.4); assay type: physicochemical; settings: phosphate buffer/acetonitrile 7:3, 100 mM potassium phosphate buffer (pH 7.4) and acetonitrile 7:3 (v/v), LC/MS; for remaining at 10 min: 10 minutes at 37°C, read-out: Buf. remaining rate (%/10min); for remaining at 1 h: 60 minutes at 37°C, read-out: Buf. remaining rate (%/60min)
Procedure, shortened: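 Compound from DMSO solution incubated at 37°C in 100 mM potassium phosphate buffer/acetonitrile 7:3 (v/v) for 0, 10 and 60 min, then quenched with acetonitrile containing formic acid (final 0.1%). Unchanged compound in supernatant quantified by LC/MS; remaining rate (%) = amount at each time / amount at zero time × 100.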

| remaining at 10 min [1] | remaining at 1 h [1] | remaining at 10 min [2] | remaining at 1 h [2] | remaining at 10 min [3] | remaining at 1 h [3] | Structure (SMILES) |
| --- | --- | --- | --- | --- | --- | --- |
| 0% | 0% | 12% | 0% | 102% | 102% | Cc1cccc(COC(=O)c2ccc(OC(=O)CCCc3ccc(NC(=O)c4ccc(C)nc4-c4ccc(C(F)(F)F)cc4)c(C(=O)N(C)C)c3)cc2)n1 [Compound 1-100, 4-[4-(3-dimethylcarbamoyl-4-([6-methyl-2-(4-trifluoromethylphenyl)pyridine-3-carbonyl]amino}phenyl)butyryloxy]benzoic acid 6-methylpyridin-2-ylmethyl ester] |
| 3% | 0% | 42% | 0% | 100% | 103% | Cc1cccc(COC(=O)c2ccc(OC(=O)CCCc3ccc(NC(=O)c4ccccc4-c4ccc(C(F)(F)F)cc4)c(C(=O)N(C)C)c3)cc2)n1 [Compound 1-101, 4-[4-(3-dimethylcarbamoyl-4-{(4'-trifluoromethylbiphenyl-2-carbonyl)amino}phenyl)butyryloxy]benzoic acid 6-methylpyridin-2-ylmethyl ester] |
| 5% | 0% | 26% | 0% | 99% | 102% | COC(=O)c1cc(C)c(OC(=O)CCCc2ccc(NC(=O)c3ccc(C)nc3-c3ccc(C(F)(F)F)cc3)c(C(=O)N(C)C)c2)c(C(=O)OC)c1 [Compound 1-110, 4-[4-(3-dimethylcarbamoyl-4-{[6-methyl-2-(4-trifluoromethylphenyl)pyridine-3-carbonyl]amino}phenyl)butyryloxy]-5-methylisophthalic acid dimethyl ester] |
| 41% | 3% | 30% | 0% | 99% | 99% | COC(=O)c1cc(C(=O)OC(C)C)cc(C)c1OC(=O)CCCc1ccc(NC(=O)c2ccc(C)nc2-c2ccc(C(F)(F)F)cc2)c(C(=O)N(C)C)c1 [Compound 1-111, 4-[4-(3-dimethylcarbamoyl-4-{[6-methyl-2-(4-trifluoromethylphenyl)pyridine-3-carbonyl]amino}phenyl)butyryloxy]-5-methylisophthalic acid 1-isopropyl ester 3-methyl ester] |
| 27% | 8% | 48% | 0% | 99% | 100% | CCOC(=O)c1cc(C)c(OC(=O)CCCc2ccc(NC(=O)c3ccc(C)nc3-c3ccc(C(F)(F)F)cc3)c(C(=O)N(C)C)c2)c(Cl)c1 [Compound 1-112, 3-chloro-4-[4-(3-dimethylcarbamoyl-4-{[6-methyl-2-(4-trifluoromethylphenyl)pyridine-3-carbonyl]amino}phenyl)butyryloxy]-5-methylbenzoic acid ethyl ester] |
| 8% | 2% | 1% | 0% | 103% | 104% | COc1cc(C(=O)OCC(=O)N(C)C)cc(Cl)c1OC(=O)CCCc1ccc(NC(=O)c2ccc(C)nc2-c2ccc(C(F)(F)F)cc2)c(C(=O)N(C)C)c1 [Compound 1-113, 3-chloro-4-[4-(3-dimethylcarbamoyl-4-{[6-methyl-2-(4-trifluoromethylphenyl)pyridine-3-carbonyl]amino}phenyl)butyryloxy]-5-methoxybenzoic acid dimethylcarbamoylmethyl ester] |
| 14% | 3% | 2% | 0% | 104% | 108% | COc1cc(C(=O)OCCNC(C)=O)cc(Cl)c1OC(=O)CCCc1ccc(NC(=O)c2ccc(C)nc2-c2ccc(C(F)(F)F)cc2)c(C(=O)N(C)C)c1 [Compound 1-114, 3-chloro-4-[4-(3-dimethylcarbamoyl-4-{[6-methyl-2-(4-trifluoromethylphenyl)pyridine-3-carbonyl]amino}phenyl)butyryloxy]-5-methoxybenzoic acid 2-acetylaminoethyl ester] |

Continued, compound first:

| Structure (SMILES) | remaining at 10 min [1] | remaining at 1 h [1] | remaining at 10 min [2] | remaining at 1 h [2] | remaining at 10 min [3] | remaining at 1 h [3] |
| --- | --- | --- | --- | --- | --- | --- |
| CC(C)OC(=O)COC(=O)c1ccc(OC(=O)CCCc2ccc(NC(=O)c3ccccc3-c3ccc(C(F)(F)F)cc3)c(C(=O)N(C)C)c2)cc1 [Compound 1-102, 4-[4-(3-dimethylcarbamoyl-4-{(4'-trifluoromethylbiphenyl-2-carbonyl)amino}phenyl)butyryloxy]benzoic acid isopropoxycarbonylmethyl ester] | 0% | 0% | 46% | 0% | 98% | 101% |
| CN(C)C(=O)c1cc(CCCC(=O)Oc2ccc(C(=O)OCc3ccc(C(=O)OC(C)(C)C)cc3)cc2)ccc1NC(=O)c1ccccc1-c1ccc(C(F)(F)F)cc1 [Compound 1-103, 4-[4-(3-dimethylcarbamoyl-4-{(4'-trifluoromethylbiphenyl-2-carbonyl)amino}phenyl)butyryloxy]benzoic acid 4-(t-butoxycarbonyl)benzyl ester] | 48% | 12% | 99% | 55% | 105% | 111% |
| CN(C)C(=O)c1cc(CCCC(=O)Oc2ccc(-c3nnn(CC(=O)OCc4ccccc4)n3)cc2)ccc1NC(=O)c1ccccc1-c1ccc(C(F)(F)F)cc1 [Compound 1-104, 4-(3-dimethylcarbamoyl-4-{(4'-trifluoromethylbiphenyl-2-carbonyl)amino}phenyl)butyric acid 4-(2-benzyloxycarbonylmethyl-2H-tetrazol-5-yl)phenyl ester] | 14% | 5% | 78% | 17% | 101% | 96% |
| CN(C)C(=O)Cn1nnc(-c2ccc(OC(=O)CCCc3ccc(NC(=O)c4ccccc4-c4ccc(C(F)(F)F)cc4)c(C(=O)N(C)C)c3)cc2)n1 [Compound 1-105, 4-(3-dimethylcarbamoyl-4-{(4'-trifluoromethylbiphenyl-2-carbonyl)amino}phenyl)butyric acid 4-(2-dimethylcarbamoylmethyl-2H-tetrazol-5-yl)phenyl ester] | 3% | 0% | 84% | 43% | 101% | 101% |
| CC(OC(=O)c1ccc(OC(=O)CCCc2ccc(NC(=O)c3ccccc3-c3ccc(C(F)(F)F)cc3)c(C(=O)N(C)C)c2)cc1)c1ccccc1 (stereo not drawn) [Compound 1-106, 4-[4-(3-dimethylcarbamoyl-4-{(4'-trifluoromethylbiphenyl-2-carbonyl)amino}phenyl)butyryloxy]benzoic acid 1-phenylethyl ester] | 13% | 0% | 49% | 0% | 98% | 99% |
| CN(C)C(=O)c1cc(CCCC(=O)Oc2ccc(C(=O)OC3CCc4ccccc43)cc2)ccc1NC(=O)c1ccccc1-c1ccc(C(F)(F)F)cc1 (stereo not drawn) [Compound 1-107, 4-[4-(3-dimethylcarbamoyl-4-{(4'-trifluoromethylbiphenyl-2-carbonyl)amino}phenyl)butyryloxy]benzoic acid indan-1-yl ester] | 11% | 3% | 63% | 2% | 98% | 99% |
| CN(C)C(=O)c1cc(CCCC(=O)Oc2ccc(C(=O)OC3CCCc4ccccc43)cc2)ccc1NC(=O)c1ccccc1-c1ccc(C(F)(F)F)cc1 (stereo not drawn) [Compound 1-108, 4-[4-(3-dimethylcarbamoyl-4-{(4'-trifluoromethylbiphenyl-2-carbonyl)amino}phenyl)butyryloxy]benzoic acid 1,2,3,4-tetrahydronaphthalen-1-yl ester] | 25% | 5% | 89% | 17% | 98% | 98% |
| CC(=O)N1CCC(OC(=O)c2ccc(OC(=O)CCCc3ccc(NC(=O)c4ccccc4-c4ccc(C(F)(F)F)cc4)c(C(=O)N(C)C)c3)cc2)CC1 [Compound 1-109, 4-[4-(3-dimethylcarbamoyl-4-{(4'-trifluoromethylbiphenyl-2-carbonyl)amino}phenyl)butyryloxy]benzoic acid 1-acetylpiperidin-4-yl ester] | 0% | 0% | 50% | 3% | 99% | 99% |
